Experimental data: patent publication US11236047B2 (ASTEX THERAPEUTICS LIMITED, priority 2017, dated 2022)
Read-outs that look alike come from different tables or passages of the source. Each block holds one compound with its values, some of them ahead of it.

Legend:
[1] = Tolerability of subcutaneous SGI-110 formulation in cynomolgus monkeys; type: in vivo
Protocol: (§1) The formulation was well-tolerated in the species tested. […] Rabbits tolerated the 5-day regimen well, up to a dose of 1.5 mg/kg/day, which is equivalent to […] in humans, and the weekly regimen up to a dose of 1.5 mg/kg/week for 3 weeks.
(§2) Cynomolgus monkeys tolerated the weekly regimen well, up to a dose of 3.0 mg/kg/week for 3 weeks, which is equivalent to […]. Rats tolerated much higher doses: 30 mg/kg/day over 5 days; and 20 mg/kg twice weekly for 4 weeks.

MV-4-11 AML cell line [2] = assay: Combination protocol for measuring apoptosis (cleaved caspase-3), MV-4-11; type: cell-based; conditions: SGI-110 10 nM daily for three days, isoindolinone 20 nM added on third day, 24 hrs, alone or combined, vehicle control 13.69
Protocol: (§3) Combination Protocol for Measuring Apoptosis
(§4) SGI-110 was added daily for three days. […] Percentage apoptosis was measured as percentage fluorescent cells with cleaved caspase-3 in a Guava easyCyte HT cytometer (Millipore). Cleaved caspase-3 staining was recorded in the FL1 channel, with unstained and DMSO control wells being used to set the gated stained and unstained cell populations.
(§5) Table 1 summarises the % apoptosis seen in Molm-13, MV-4-11, or ML-2 with the indicated compound treatments.

Molm-13 AML cell line [3] = assay: Combination protocol for measuring apoptosis (cleaved caspase-3), Molm-13; type: cell-based; conditions: SGI-110 10 nM daily for three days, isoindolinone 20 nM added on third day, 24 hrs, alone or combined, vehicle control 8.72
Protocol: as §3, §4, §5

LINE-1 DNA methylation = LINE-1 DNA methylation in blood samples, repeat dose study; type: in vivo; conditions: monkeys; 3 mg/kg subcutaneously 3x weekly; until day 22; p<0.05 vs level prior to initial dosing
[4] = Tolerability of subcutaneous SGI-110 formulation in rabbits; type: in vivo
Protocol: as §1

[5] = in vivo, sc
[6] = Tolerability of subcutaneous SGI-110 formulation in rats; type: in vivo
Protocol: as §1, §2

ML-2 AML cell line [7] = assay: Combination protocol for measuring apoptosis (cleaved caspase-3), ML-2; type: cell-based; conditions: SGI-110 10 nM daily for three days, isoindolinone 100 nM added on third day, 24 hrs, alone or combined, vehicle control 3.32
Protocol: as §3, §4, §5

SJSA-1 cells = assay: Protocol B: SJSA-1 CellTiter-Glo luminescent cell viability assay
MDM2-p53 interaction = MDM2-p53 interaction (Homo sapiens (Human), UniProt Q00987); conditions: for inhibition at 0.001 µM: read-out: MDM2 % inhibition @0.0010
Chain of MDM2-p53 interaction (Q00987 whole entry): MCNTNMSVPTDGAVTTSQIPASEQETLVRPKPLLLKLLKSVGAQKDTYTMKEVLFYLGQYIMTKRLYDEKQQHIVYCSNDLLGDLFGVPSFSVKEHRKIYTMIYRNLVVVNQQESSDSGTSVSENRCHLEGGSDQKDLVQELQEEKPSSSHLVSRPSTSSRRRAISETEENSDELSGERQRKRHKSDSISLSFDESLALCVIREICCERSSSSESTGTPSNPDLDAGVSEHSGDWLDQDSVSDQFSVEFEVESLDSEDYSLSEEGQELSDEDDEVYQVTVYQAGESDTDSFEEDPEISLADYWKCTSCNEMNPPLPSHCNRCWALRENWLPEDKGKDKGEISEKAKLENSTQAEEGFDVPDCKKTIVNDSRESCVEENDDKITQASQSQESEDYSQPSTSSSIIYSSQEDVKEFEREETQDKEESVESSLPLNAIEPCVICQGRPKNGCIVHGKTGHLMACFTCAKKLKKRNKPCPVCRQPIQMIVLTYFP

[8] = system: SN40R2 cells (p53 mutated, MDM2 amplified osteosarcoma); assay: Protocol A: SN40R2 growth inhibition (sulphorhodamine B)
[9] = system: SJSA-1 cells (p53 wild-type, MDM2 amplified osteosarcoma); assay: Protocol A: SJSA-1 growth inhibition (sulphorhodamine B); conditions: Homo sapiens
SN40R2 cells = assay: Protocol B: SN40R2 CellTiter-Glo luminescent cell viability assay; conditions: read-out: SN40R2 % inhibition at 10, Protocol B, SN40R2, at 10 μM
ML-2 AML cell line [10] = assay: Combination protocol for proliferation in dose matrix (Alamar blue), ML-2; type: cell-based
Protocol: (§6) Combination Protocol for Proliferation in Dose Matrix
(§7) AML cell lines were seeded onto 96-well tissue culture plates in triplicates at a concentration of 1×10^4 cells/well. […] At the end of compound treatment, 20 μl Alamar blue was added. After further 5-6 hr incubation at 37° C. the plates were read on a Spectramax Gemini reader (Molecular Devices; excitation 535 nm, emission 590 nm).

Molm-13 AML cell line [11] = assay: Combination protocol for proliferation in dose matrix (Alamar blue), Molm-13; type: cell-based
Protocol: as §6, §7

MV-4-11 AML cell line [12] = assay: Combination protocol for proliferation in dose matrix (Alamar blue), MV-4-11; type: cell-based
Protocol: as §6, §7

in vivo = conditions: monkey, 10 mg/kg
[13] = Repeat dose pharmacokinetics in monkeys; conditions: monkey, in vivo, sc, 3 mg/kg subcutaneously 3x weekly, day 15
[14] = read-out: SJSA1 IC50, Protocol B, SJSA-1
[15] = SJSA-1, read-out: SJSA-1 IC50 (μM), Protocol A, SJSA-1
[16] = SGI-110 0 μM + isoindolinone 0.001 μM
[17] = SGI-110 0 μM + isoindolinone 0.003 μM
[18] = SGI-110 0 μM + isoindolinone 0.01 μM
[19] = SGI-110 0 μM + isoindolinone 0.03 μM
[20] = SGI-110 0 μM + isoindolinone 0.1 μM
[21] = SGI-110 0 μM + isoindolinone 0.3 μM
[22] = SGI-110 0 μM + isoindolinone 1 μM
[23] = SGI-110 0 μM + isoindolinone 3 μM
[24] = SGI-110 0 μM + isoindolinone 10 μM
[25] = read-out: SN40R2 IC50 (μM) (Protocol A)
[26] = SJSA-1, read-out: SJSA-1 IC50 (μM) (Protocol A), SJSA-1, Protocol A

Compound: Nc1ncn([C@H]2C[C@H](OP(=O)(O)OC[C@H]3O[C@@H](n4cnc5c(=O)[nH]c(N)nc54)C[C@@H]3O)[C@@H](CO)O2)c(=O)n1 [SGI-110, 2′-deoxy-5-azacytidylyl-(3′5′)-2′-deoxy-guanosine]
tolerated dose, once weekly subcutaneous regimen ([1]; cynomolgus monkeys, for 3 weeks): ≤ 3.0 mg/kg/week
equivalent dose of tolerated weekly regimen dose ([1]; from cynomolgus monkeys 3.0 mg/kg/week): 36 mg/kg/week
% Apoptosis (MV-4-11 AML cell line [2]): 26.12%
% Apoptosis (Molm-13 AML cell line [3]): 36.08%
LINE-1 DNA methylation (LINE-1 DNA methylation): Decreases in LINE-1 DNA methylation
tolerated dose, once daily subcutaneous dose for 5 days ([4]; SGI-110 sodium salt 100 mg/mL in glycol/glycerin/ethanol (65:25:10)): ≤ 1.5 mg/kg/day
tolerated dose, once weekly subcutaneous regimen ([4]; for 3 weeks): ≤ 1.5 mg/kg/week
myelosuppression and recovery [5]: less myelosuppression and faster recovery
tolerated dose, once daily subcutaneous regimen ([6]; over 5 days): 30 mg/kg/day
tolerated dose, twice weekly subcutaneous regimen ([6]; twice weekly for 4 weeks): 20 mg/kg
% Apoptosis (ML-2 AML cell line [7]): 3.93%

Compound: CCC(O)(c1cc(F)c2c(c1)C(=O)N(Cc1ccc(C#N)cn1)[C@@]2(OC1CC(O)C1)c1ccc(Cl)cc1)[C@H]1CC[C@H](O)CC1 (stereo partly drawn) [Example 518, 6-{[(1R)-1-(4-chlorophenyl)-7-fluoro-5-{1-hydroxy-1-[trans-4-hydroxycyclohexyl]propyl}-3-oxo-1-[cis-3-hydroxycyclobutoxy]-2,3-dihydro-1H-isoindol-2-yl]methyl}pyridine-3-carbonitrile]
IC50 (SJSA-1 cells; [14]): 0.065 µM
inhibition at 0.001 µM (MDM2-p53 interaction): 79%
inhibition at 50 µM ([8]; read-out: SN40R2 % inhibition at 50): 46%
IC50 [9, 15]: 0.058 µM
inhibition at 10 µM (SN40R2 cells): 10%

Compound: CC[C@@](O)(c1cc(F)c2c(c1)C(=O)N([C@H](c1ccc(Cl)cc1)[C@H](C)C(=O)O)[C@@]2(OC)c1ccc(Cl)cc1)C1CCOCC1 [(2S,3S)-3-(4-chlorophenyl)-3-[(1R)-1-(4-chlorophenyl)-7-fluoro-5-[(1S)-1-hydroxy-1-(oxan-4-yl)propyl]-1-methoxy-3-oxo-2,3-dihydro-1H-isoindol-2-yl]-2-methylpropanoic Acid]
% Apoptosis (MV-4-11 AML cell line [2]): 30.83%
% Apoptosis (Molm-13 AML cell line [3]): 32.48%
Percentage viability relative to DMSO control (ML-2 AML cell line [10]; [16]): 100%
Percentage viability relative to DMSO control (ML-2 AML cell line [10]; [17]): 94%
Percentage viability relative to DMSO control (ML-2 AML cell line [10]; [18]): 78%
Percentage viability relative to DMSO control (ML-2 AML cell line [10]; [19]): 59%
Percentage viability relative to DMSO control (ML-2 AML cell line [10]; [20]): 47%
Percentage viability relative to DMSO control (ML-2 AML cell line [10]; [21]): 30%
Percentage viability relative to DMSO control (ML-2 AML cell line [10]; [22]): 16%
Percentage viability relative to DMSO control (ML-2 AML cell line [10]; [23]): 15%
Percentage viability relative to DMSO control (ML-2 AML cell line [10]; [24]): 9%
Percentage viability relative to DMSO control (Molm-13 AML cell line [11]; [16]): 98%
Percentage viability relative to DMSO control (Molm-13 AML cell line [11]; [17]): 99%
Percentage viability relative to DMSO control (Molm-13 AML cell line [11]; [18]): 84%
Percentage viability relative to DMSO control (Molm-13 AML cell line [11]; [19]): 52%
Percentage viability relative to DMSO control (Molm-13 AML cell line [11]; [20]): 37%
Percentage viability relative to DMSO control (Molm-13 AML cell line [11]; [21]): 27%
Percentage viability relative to DMSO control (Molm-13 AML cell line [11]; [22]): 24%
Percentage viability relative to DMSO control (Molm-13 AML cell line [11]; [23]): 22%
Percentage viability relative to DMSO control (Molm-13 AML cell line [11]; [24]): 15%
Percentage viability relative to DMSO control (MV-4-11 AML cell line [12]; [16]): 92%
Percentage viability relative to DMSO control (MV-4-11 AML cell line [12]; [17]): 82%
Percentage viability relative to DMSO control (MV-4-11 AML cell line [12]; [18]): 70%
Percentage viability relative to DMSO control (MV-4-11 AML cell line [12]; [19]): 54%
Percentage viability relative to DMSO control (MV-4-11 AML cell line [12]; [20]): 29%
Percentage viability relative to DMSO control (MV-4-11 AML cell line [12]; [21]): 16%
Percentage viability relative to DMSO control (MV-4-11 AML cell line [12]; [22]): 13%
Percentage viability relative to DMSO control (MV-4-11 AML cell line [12]; [23]): 13%
Percentage viability relative to DMSO control (MV-4-11 AML cell line [12]; [24]): 12%
% Apoptosis (ML-2 AML cell line [7]): 15.15%

IC50 (SJSA-1 cells; Homo sapiens, SJSA-1, read-out: SJSA1 IC50 (μM) (Protocol B), SJSA-1, Protocol B): 0.16 µM
MDM2 % at stated concentration (MDM2-p53 interaction): 62%@0.0010
IC50 [8, 25]: 32 µM
IC50 [9, 26]: 0.11 µM
Compound: CO[C@]1(c2ccc(Cl)cc2)c2c(F)cc(C(C)(O)C3CCN(C(=O)CO)CC3)cc2C(=O)N1Cc1ccc(Cl)cn1 (single isomer, unassigned) [Example 296]

IC50 (SJSA-1 cells; [14]): 0.19 µM
inhibition at 0.001 µM (MDM2-p53 interaction): 65%
IC50 ([8]; read-out: SN40R2 IC50 (μM)): 22 µM
IC50 [9, 15]: 0.11 µM
Compound: Cn1cc(C(O)(c2cc(F)c3c(c2)C(=O)N(Cc2ccc(C#N)cn2)[C@@]3(O[C@H]2CCOC2)c2ccc(Cl)cc2)C(F)(F)F)cn1 (stereo partly drawn) [Example 428, 6-{[(1R)-1-(4-chlorophenyl)-7-fluoro-3-oxo-1-[(3S)-oxolan-3-yloxy]-5-[2,2,2-trifluoro-1-hydroxy-1-(1-methyl-1H-pyrazol-4-yl)ethyl]-2,3-dihydro-1H-isoindol-2-yl]methyl}pyridine-3-carbonitrile]

Compound: CC(O)(c1cc(F)c2c(c1)C(=O)N(Cc1ccc(Cl)cn1)[C@@]2(OCC1(C#N)CC1)c1ccc(Cl)cc1)C1CCN(CCO)CC1 (single isomer, unassigned) [Example 420]
MDM2 % at stated concentration (MDM2-p53 interaction): 68%@0.0010
IC50 [8, 25]: 17 µM
IC50 [9, 26]: 0.49 µM

AUC (in vivo): 340 ng·h/mL
Cmax (in vivo): 160 ng/mL
AUC at 15 day [13]: 99 ng·h/mL
Cmax at 15 day [13]: 28 ng/mL
Compound: Nc1ncn([C@H]2C[C@H](O)[C@@H](CO)O2)c(=O)n1 [decitabine, 5-aza-2′-deoxycytidine]

AUC (in vivo): 1470 ng·h/mL
Cmax (in vivo): 1130 ng/mL
AUC at 15 day [13]: 592 ng·h/mL
Cmax at 15 day [13]: 181 ng/mL
Compound: Nc1ncn([C@H]2CC(OP(=O)(O)OC[C@H]3O[C@@H](n4cnc5c(=O)[nH]c(N)nc54)CC3O)[C@@H](CO)O2)c(=O)n1 (some centres unmarked) [compound 1-1]
